Experimental data published in patent US20250059188A1, “ARYLSULPHONAMIDE COMPOUNDS” (Anaxis Pharma Pty Ltd, priority 2021, published 2025).

How the values were obtained:
[1] = tested on: U937 human histiocytic leukemia cell line; assay: Inhibition of TSQ induced necroptosis in U937 cells (CellTitre-Glo); details: Homo sapiens, U-937, TSQ cocktail (TNF, Smac mimetic, Q-VD-OPh), 48 hours, read-out: Inhibition of TSQ-induced necroptosis (IC50 cell-based assay)
Procedure, shortened: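 U937 cells (20000/well) treated with compound (10-point, 1:3 from 36 μM, 0.3% DMSO) plus TSQ cocktail (hTNF-Fc 100 ng/ml, Smac mimetic 500 nM, Q-VD-OPh 10 μM), 48 h at 37 °C. Viability by CellTiter-Glo luminescence; IC50 from 4-parameter logistic fit. Counter screen: same cells without TSQ.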

U937 cells = assay: Counter screen: U937 cell viability without TSQ cocktail (off-target effect); parameters: species or system human; details: Homo sapiens, U-937, compound without TSQ cocktail, read-out: Off-target effect (IC50 cell-based assay)
Procedure, shortened: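 U937 cells (20,000/well) exposed to compound (10-point 1:3 titration from 36 μM, 0.3% DMSO) without TSQ cocktail for 48 h at 37 °C/5% CO2. Viability read as ATP by CellTiter-Glo luminescence; IC50 from 4-parameter logistic fit.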

mouse MLKL (full length) = mouse MLKL (full length) (Mus musculus (Mouse), UniProt Q9D2Y4); assay: KINOMEscan binding assay, mouse MLKL (full length); details: equilibrium dissociation constant
Description: Binding affinity of the test compounds for human MLKL (full length), mouse MLKL (full length), human RIPK1 and human RIPK3 was determined using the KINOMEscan™ technology developed by DiscoverX (USA; http://www.discoverx.com). The assay was conducted according to manufacturer instructions.
Kinase assays. For most assays, kinase-tagged T7 phage strains were grown in parallel in 24-well blocks in an E. coli host derived from the BL21 strain. E. coli were grown to log-phase and infected with T7 phage from a frozen stock (multiplicity of infection=0.4) and incubated with shaking at 32° C. until lysis (90-150 minutes). The lysates were centrifuged (6,000×g) and filtered (0.2 μm) to remove cell debris. The remaining kinases were produced in HEK-293 cells and subsequently tagged with DNA for qPCR detection. […] The liganded beads were blocked with excess biotin and washed with blocking buffer (SeaBlock (Pierce), 1% BSA, 0.05% Tween 20, 1 mM DTT) to remove unbound ligand and to reduce non-specific phage binding. […] All reactions were performed in polypropylene 384-well plates in a final volume of 20 μL. […] The kinase concentration in the eluates was measured by qPCR.
An 11-point 3-fold serial dilution of each test compound was prepared in 100% DMSO at 100× final test concentration and subsequently diluted to 1× in the assay (final DMSO concentration=1%). Most Kos were determined using a compound top concentration=30,000 nM.
KD for each test compound was calculated with a standard dose-response curve using the Hill equation (equation (1)): […]
The Hill Slope was set to −1.
Curves were fitted using a non-linear least square fit with the Levenberg-Marquardt algorithm.

Sequence of mouse MLKL (full length) (Q9D2Y4 whole entry): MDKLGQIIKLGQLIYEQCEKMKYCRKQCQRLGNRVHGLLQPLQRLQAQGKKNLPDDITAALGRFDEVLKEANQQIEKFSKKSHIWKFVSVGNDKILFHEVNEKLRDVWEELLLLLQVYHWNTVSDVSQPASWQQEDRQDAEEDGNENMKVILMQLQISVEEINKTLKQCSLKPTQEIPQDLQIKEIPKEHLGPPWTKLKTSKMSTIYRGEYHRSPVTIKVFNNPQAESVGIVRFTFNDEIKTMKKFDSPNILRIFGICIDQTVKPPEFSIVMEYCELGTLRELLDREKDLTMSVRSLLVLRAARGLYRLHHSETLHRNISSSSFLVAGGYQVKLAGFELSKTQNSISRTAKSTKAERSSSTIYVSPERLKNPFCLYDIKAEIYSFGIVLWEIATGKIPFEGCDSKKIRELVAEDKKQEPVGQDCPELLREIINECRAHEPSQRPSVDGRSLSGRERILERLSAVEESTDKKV

Kd (mouse MLKL (full length)) [µM] | SMILES | IC50 [1] [µM] | IC50 (U937 cells) [µM]
< 0.001 | Cn1nc(-c2ccc(NS(=O)(=O)C(F)F)c(OCc3ccc(F)cc3)c2)c2c(N)ncc(-c3cnn(C4CCOCC4)c3)c21 [Compound 13, N-(4-(4-amino-1-methyl-7-(1-(tetrahydro-2H-pyran-4-yl)-1H-pyrazol-4-yl)-1H-pyrazolo[4,3-c]pyridin-3-yl)-2-((4-fluorobenzyl)oxy)phenyl)-1,1-difluoromethanesulfonamide] | 0.01 to 1 | > 10
< 0.001 | C[C@H](Oc1cc(-c2nn(C)c3c(-c4cnn(C5CCOCC5)c4)cnc(N)c23)ccc1NS(=O)(=O)C(F)F)c1ccc(F)cc1 [Compound 19, (S)-N-(4-(4-amino-1-methyl-7-(1-(tetrahydro-2H-pyran-4-yl)-1H-pyrazol-4-yl)-1H-pyrazolo[4,3-c]pyridin-3-yl)-2-(1-(4-fluorophenyl)ethoxy)phenyl)-1,1-difluoromethanesulfonamide] | < 0.01 | > 10
 | C[C@H](Oc1cc(-c2nn(C)c3c(-c4cnn(C5CCN(C)C(C)(C)C5)c4)cnc(N)c23)ccc1NS(=O)(=O)C(F)F)c1ccc(Cl)cc1 (stereo partly drawn) [Compound 159, N-(4-(4-amino-1-methyl-7-(1-(1,2,2-trimethylpiperidin-4-yl)-1H-pyrazol-4-yl)-1H-pyrazolo[4,3-c]pyridin-3-yl)-2-((S)-1-(4-chlorophenyl)ethoxy)phenyl)-1,1-difluoromethanesulfonamide] | < 0.01 | > 10
 | C[C@H](Oc1cc(-c2nn(C)c3c(-c4cnn(C5CC(C)(C)N(C)C(C)(C)C5)c4)cnc(N)c23)ccc1NS(=O)(=O)C(F)F)c1ccc(F)cc1 [Compound 162, (S)-N-(4-(4-amino-1-methyl-7-(1-(1,2,2,6,6-pentamethylpiperidin-4-yl)-1H-pyrazol-4-yl)-1H-pyrazolo[4,3-c]pyridin-3-yl)-2-(1-(4-fluorophenyl)ethoxy)phenyl)-1,1-difluoromethanesulfonamide] | < 0.01 | > 10
 | C[C@H](Oc1cc(-c2nn(C)c3c(-c4cnn(C5C[C@H]6CNC[C@H]6C5)c4)cnc(N)c23)ccc1NS(=O)(=O)C(F)F)c1ccc(F)cc1 (stereo partly drawn) [Compound 163, N-(4-(4-amino-1-methyl-7-(1-((3aR,6aS)-octahydrocyclopenta[c]pyrrol-5-yl)-1H-pyrazol-4-yl)-1H-pyrazolo[4,3-c]pyridin-3-yl)-2-((S)-1-(4-fluorophenyl)ethoxy)phenyl)-1,1-difluoromethanesulfonamide] | 0.01 to 1 | > 10
 | C[C@H](Oc1cc(-c2nn(C)c3c(-c4cnn(C5C[C@@H]6CN(C)C[C@@H]6C5)c4)cnc(N)c23)ccc1NS(=O)(=O)C(F)F)c1ccc(F)cc1 (stereo partly drawn) [Compound 164, N-(4-(4-amino-1-methyl-7-(1-((3aR,6aS)-2-methyloctahydrocyclopenta[c]pyrrol-5-yl)-1H-pyrazol-4-yl)-1H-pyrazolo[4,3-c]pyridin-3-yl)-2-((S)-1-(4-fluorophenyl)ethoxy)phenyl)-1,1-difluoromethanesulfonamide] | < 0.01 | > 10
 | C[C@H](Oc1cc(-c2nn(C)c3c(-c4ccc5c(cnn5C)c4)cnc(N)c23)ccc1NS(=O)(=O)C(F)F)c1ccc(F)cc1 [Compound 166, (S)-N-(4-(4-amino-1-methyl-7-(1-methyl-1H-indazol-5-yl)-1H-pyrazolo[4,3-c]pyridin-3-yl)-2-(1-(4-fluorophenyl)ethoxy)phenyl)-1,1-difluoromethanesulfonamide] | 0.01 to 1 | > 10
 | C[C@H](Oc1cc(-c2nn(C)c3c(-c4cnn(C5CCN(CC(F)(F)F)C(C)(C)C5)c4)cnc(N)c23)ccc1NS(=O)(=O)C(F)F)c1ccc(F)cc1 (stereo partly drawn) [Compound 167, N-(4-(4-amino-7-(1-(2,2-dimethyl-1-(2,2,2-trifluoroethyl)piperidin-4-yl)-1H-pyrazol-4-yl)-1-methyl-1H-pyrazolo[4,3-c]pyridin-3-yl)-2-((S)-1-(4-fluorophenyl)ethoxy)phenyl)-1,1-difluoromethanesulfonamide] | 0.01 to 1 | 1 to 10
 | CC1CN(C)CC(C)C1n1cc(-c2cnc(N)c3c(-c4ccc(NS(=O)(=O)C(F)F)c(O[C@@H](C)c5ccc(F)cc5)c4)nn(C)c23)cn1 (stereo partly drawn) [Compound 172, N-(4-{4-amino-1-methyl-7-[1-(1,3,5-trimethylpiperidin-4-yl)-1H-pyrazol-4-yl]-1H-pyrazolo[4,3-c]pyridin-3-yl}-2-[(1S)-1-(4-fluorophenyl)ethoxy]phenyl)-1,1-difluoromethanesulfonamide] | 0.01 to 1 | > 10
